{"source": "patent US10370401B2", "about": "“Substituted nucleosides, nucleotides and analogs thereof” (Alios BioPharma, Inc., priority 2013, dated 2019)", "key": {"subgenomic HCV replicon": {"system": "subgenomic HCV replicon", "assay": "HCV replicon assay (Huh-7, luciferase reporter)", "format": "cell-based", "details": "Hepatitis C virus"}, "Human rhinovirus 1B": {"system": "Human rhinovirus 1B", "assay": "Picornavirus assay (CPE, CellTiter-Glo, HeLa-OHIO cells)", "format": "cell-based"}, "[1]": {"target": "human rhinovirus 16 polymerase (HRV16pol) (Human rhinovirus 16, UniProt Q82122)", "sequence (Q82122 1694-2153 limits assumed)": "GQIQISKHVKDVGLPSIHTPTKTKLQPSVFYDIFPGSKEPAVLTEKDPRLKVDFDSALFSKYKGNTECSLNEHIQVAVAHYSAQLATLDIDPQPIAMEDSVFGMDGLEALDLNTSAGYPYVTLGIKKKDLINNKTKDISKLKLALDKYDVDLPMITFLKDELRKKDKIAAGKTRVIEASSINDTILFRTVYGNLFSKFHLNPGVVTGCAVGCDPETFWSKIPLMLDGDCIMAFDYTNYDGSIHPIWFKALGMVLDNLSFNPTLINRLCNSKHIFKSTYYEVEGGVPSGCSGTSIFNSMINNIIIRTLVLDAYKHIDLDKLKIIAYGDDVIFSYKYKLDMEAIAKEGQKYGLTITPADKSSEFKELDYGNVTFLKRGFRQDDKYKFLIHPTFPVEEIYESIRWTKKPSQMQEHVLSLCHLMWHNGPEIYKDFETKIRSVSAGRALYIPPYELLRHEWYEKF", "assay": "biochemical", "details": "HRV16pol, 2.5 h at 30° C., mean of several independent experiments; read-out: IC50"}, "[2]": {"target": "dengue virus NS5 polymerase domain (DENVpol, serotype 2, New Guinea C strain) (Dengue virus type 2, UniProt P14340)", "assay": "Dengue virus polymerase inhibition assay", "format": "biochemical", "details": "DENVpol serotype 2, 3 hours at 30° C., mean of several independent experiments", "procedure": "The enzyme activity of dengue virus NS5 polymerase domain (DENVpol, serotype 2, New Guinea C strain) was measured as an incorporation of tritiated NMP into acid-insoluble RNA products. DENVpol assay reactions contained 100 nM recombinant enzyme, 50 nM heteropolymeric RNA, about 0.5 μCi tritiated NTP, 0.33 μM of competing cold NTP, 40 mM HEPES (pH 7.5), 3 mM dithiothreitol, and 2 mM MgCl2. Standard reactions were incubated for 3 hours at 30° C., in the presence of increasing concentration of inhibitor. At the end of the reaction, RNA was precipitated with 10% TCA, and acid-insoluble RNA products were filtered on a size exclusion 96-well plate. After washing of the plate, scintillation liquid was added and radiolabeled RNA products were detected according to standard procedures with a Trilux Topcount scintillation counter. The compound concentration at which the enzyme-catalyzed rate was reduced by 50% (IC50) was calculated by fitting the data to a non-linear regression (sigmoidal)."}, "NS5B570-Con1 (Delta-21)": {"target": "NS5B570-Con1 (Delta-21) (Hepatitis C virus genotype 1b, UniProt Q9WMX2)", "assay": "biochemical", "design": "species or system HCV"}, "[3]": {"system": "Dengue virus type 2 strain New Guinea C (NG-C) or Dengue virus type 4 strain H241", "assay": "Dengue virus cell-based assay (Huh-7.5 cells, CellTiter-Glo)", "details": "Huh-7.5 cells, antiviral activity; dengue type (2 NG-C or 4 H241) not given; read-out: IC50", "procedure": "The Dengue virus type 2 strain New Guinea C (NG-C) and the Dengue virus type 4 strain H241 were purchased from ATCC (Manassas, Va.; item numbers VR-1584 and VR-1490, respectively). 24 h prior to dosing, Huh-7.5 cells were plated in 96 well plates at a density of 1.5×10^5/mL in DMEM medium supplemented with 10% fetal bovine serum, 1% HEPES buffer, 1% Penicillin/Streptomycin and 1% non-essential amino acids (all Mediatech, Manassas, Va.). At the day of infection, serially diluted compounds were added to cells and incubated for 4 h. After the end of the 4 h pre-incubation period, cells were infected with either Dengue virus type 2 NG-C or Dengue virus type 4H241. The virus inoculum was selected to cause 80-90% cytopathic effect in five to six days. Infected cells were incubated for five (NG-C) to six (H241) days at 37° C., 5% CO2. To develop the assay, 100 μL media was replaced with 100 μl CellTiter-Glo® reagent (Promega, Madison, Wis.), and incubated for 10 mins at RT. Luminescence was measured on a Victor X3 multi-label plate reader. Potential compound cytotoxicity of was determined using uninfected parallel cultures."}, "[4]": {"details": "Huh-7 HCV replicon cells, luciferase, 72 hours, read-out: EC50"}, "[5]": {"details": "Rhinovirus A, 96 h, Human rhinovirus 1B, HeLa-OHIO cells, 4 d at 33° C., read-out: EC50"}}, "note": "Read-outs that look alike come from different tables or passages of the source."}
{"smiles": "CC(C)OC(=O)OCOP(=O)(OCOC(=O)OC(C)C)OC[C@@]1(CF)O[C@@H](n2ccc(=O)n(COP(=O)(O)O)c2=O)[C@](C)(O)[C@@H]1O", "note": "[Compound 284]", "values": [{"measurement": "EC50", "setting": "subgenomic HCV replicon; [4]", "result": "1 to 10", "unit": "µM"}, {"measurement": "EC50", "setting": "Human rhinovirus 1B; [5]", "result": "1 to 10", "unit": "µM"}]}
{"smiles": "CCOc1nc(N)nc2c1ncn2[C@@H]1O[C@](F)(COP(=O)(OCOC(=O)OC(C)C)OCOC(=O)OC(C)C)[C@@H](F)[C@@]1(C)O", "note": "[Compound 57]", "values": [{"measurement": "EC50", "setting": "subgenomic HCV replicon; [4]", "result": "< 1", "unit": "µM"}, {"measurement": "EC50", "setting": "Human rhinovirus 1B; [5]", "result": "< 1", "unit": "µM"}]}
{"smiles": "CCOc1nc(N)nc2c1ncn2[C@@H]1O[C@](F)(COP(=O)(N[C@@H](C)C(=O)OCC(C)(C)C)Oc2ccccc2)[C@@H](F)[C@@]1(C)O", "note": "(some centres unmarked) [Compound 21]", "values": [{"measurement": "EC50", "setting": "subgenomic HCV replicon; Huh-7, 72 h", "result": "1 to 10", "unit": "µM"}, {"measurement": "EC50", "setting": "Human rhinovirus 1B; Rhinovirus A, 96 h", "result": "< 1", "unit": "µM"}]}
{"smiles": "COC(=O)OCOP(=O)(OCOC(=O)OC)OC[C@@]1(CF)O[C@@H](n2ccc(=O)[nH]c2=O)[C@](C)(O)[C@@H]1O", "note": "[Compound 65]", "values": [{"measurement": "EC50", "setting": "subgenomic HCV replicon; [4]", "result": "10 to 100", "unit": "µM"}, {"measurement": "EC50", "setting": "Human rhinovirus 1B; [5]", "result": "10 to 100", "unit": "µM"}]}
{"smiles": "C#C[C@]1(O)[C@H](n2cnc3c(=O)[nH]c(N)nc32)O[C@](F)(COP(=O)(O)OP(=O)(O)OP(=O)(O)O)[C@H]1F", "note": "[compound 103]", "values": [{"measurement": "IC50", "setting": "[1]", "result": "< 1", "unit": "µM"}, {"measurement": "IC50", "setting": "[2]", "result": "< 1", "unit": "µM"}, {"measurement": "IC50", "setting": "NS5B570-Con1 (Delta-21)", "result": "< 1", "unit": "µM"}]}
{"smiles": "C#C[C@]1(O)[C@H](n2cnc3c(OCC)nc(N)nc32)O[C@](F)(CO[P@@](=O)(N[C@@H](C)C(=O)OC2CCCCC2)Oc2ccccc2)[C@H]1O", "note": "[Compound 28]", "values": [{"measurement": "EC50", "setting": "Human rhinovirus 1B; Human rhinovirus 1B, HeLa-OHIO cells, 4 d at 33° C., read-out: EC50", "result": "< 1", "unit": "µM"}, {"measurement": "IC50", "setting": "[3]", "result": "< 10", "unit": "µM"}]}
{"smiles": "Nc1ncnc2c1ncn2[C@@H]1O[C@H](CO)[C@@H](O)[C@]1(O)CF", "note": "[compound 301]", "values": [{"measurement": "EC50", "setting": "subgenomic HCV replicon; [4]", "result": "< 1", "unit": "µM"}, {"measurement": "EC50", "setting": "Human rhinovirus 1B; [5]", "result": "10 to 100", "unit": "µM"}]}
{"smiles": "CC(C)OC(=O)OCOP(=O)(OCOC(=O)OC(C)C)OC[C@@]1(CF)O[C@@H](n2ccc(=O)[nH]c2=O)[C@](C)(O)[C@@H]1OC(=O)[C@H](C)N", "note": "[Compound 281]", "values": [{"measurement": "EC50", "setting": "subgenomic HCV replicon; Huh-7, 72 h", "result": "< 1", "unit": "µM"}, {"measurement": "EC50", "setting": "Human rhinovirus 1B; Rhinovirus A, 96 h", "result": "< 1", "unit": "µM"}]}
{"smiles": "C#C[C@]1(O)[C@H](n2ccc(=O)[nH]c2=O)O[C@](F)(COP(=O)(O)OP(=O)(O)OP(=O)(O)O)[C@H]1O", "note": "[compound 114]", "values": [{"measurement": "IC50", "setting": "[1]", "result": "< 1", "unit": "µM"}, {"measurement": "IC50", "setting": "[2]", "result": "< 10", "unit": "µM"}]}
{"smiles": "CC(C)(CO)C(=O)SCCOP(=O)(NCc1ccccc1)OC[C@@]1(CF)O[C@@H](n2ccc(=O)[nH]c2=O)[C@](C)(O)[C@@H]1O", "note": "(some centres unmarked) [Compound 280]", "values": [{"measurement": "EC50", "setting": "subgenomic HCV replicon; [4]", "result": "10 to 100", "unit": "µM"}, {"measurement": "EC50", "setting": "Human rhinovirus 1B; [5]", "result": "10 to 100", "unit": "µM"}]}
{"smiles": "Nc1ccn([C@@H]2O[C@](CCl)(COP(=O)(O)OP(=O)(O)OP(=O)(O)O)[C@@H](O)[C@H]2O)c(=O)n1", "note": "[compound 164]", "values": [{"measurement": "IC50", "setting": "[2]", "result": "< 100", "unit": "µM"}]}
{"smiles": "C[C@]1(Cl)[C@H](n2ccc(=O)[nH]c2=O)O[C@](F)(COP(=O)(O)OP(=O)(O)OP(=O)(O)O)[C@H]1O", "note": "[compound 149]", "values": [{"measurement": "IC50", "setting": "[2]", "result": "< 10", "unit": "µM"}, {"measurement": "IC50", "setting": "NS5B570-Con1 (Delta-21)", "result": "< 1", "unit": "µM"}]}
{"smiles": "C[C@@]1(O)[C@H](O)[C@@](CF)(COP(=O)(O)OP(=O)(O)OP(=O)(O)O)O[C@H]1n1cnc2c(=O)[nH]c(N)nc21", "note": "[compound 34]", "values": [{"measurement": "IC50", "setting": "[1]", "result": "< 1", "unit": "µM"}, {"measurement": "IC50", "setting": "[2]", "result": "< 1", "unit": "µM"}, {"measurement": "IC50", "setting": "NS5B570-Con1 (Delta-21)", "result": "< 1", "unit": "µM"}]}
{"smiles": "N#C[C@]1(CO)O[C@@H](n2ccc(N)nc2=O)C(F)(F)[C@@H]1O", "note": "[Compound 298]", "values": [{"measurement": "EC50", "setting": "subgenomic HCV replicon; [4]", "result": "10 to 100", "unit": "µM"}, {"measurement": "EC50", "setting": "Human rhinovirus 1B; [5]", "result": "1 to 10", "unit": "µM"}]}
{"smiles": "CC(C)OC(=O)OCOP(=O)(OCOC(=O)OC(C)C)OC[C@@]1(CCl)O[C@@H](n2ccc(=O)[nH]c2=O)[C@](C)(O)[C@@H]1O", "note": "[Compound 43]", "values": [{"measurement": "EC50", "setting": "subgenomic HCV replicon; [4]", "result": "< 1", "unit": "µM"}, {"measurement": "EC50", "setting": "Human rhinovirus 1B; [5]", "result": "10 to 100", "unit": "µM"}]}
{"smiles": "[N-]=[N+]=NC[C@]1(CO)O[C@@H](n2ccc(N)nc2=O)[C@H](F)[C@@H]1O", "note": "[Compound 106]", "values": [{"measurement": "EC50", "setting": "subgenomic HCV replicon; [4]", "result": "10 to 100", "unit": "µM"}, {"measurement": "EC50", "setting": "Human rhinovirus 1B; [5]", "result": "1 to 10", "unit": "µM"}]}
{"smiles": "CC(C)OC(=O)OCOP(=O)(OCOC(=O)OC(C)C)OC[C@@]1(CF)O[C@@H](n2cnc3c(N)ncnc32)[C@](C)(O)[C@@H]1O", "note": "[Compound 84]", "values": [{"measurement": "EC50", "setting": "subgenomic HCV replicon; [4]", "result": "1 to 10", "unit": "µM"}, {"measurement": "EC50", "setting": "Human rhinovirus 1B; [5]", "result": "< 1", "unit": "µM"}]}
{"smiles": "Nc1nc2c(ncn2[C@@H]2O[C@](F)(COP(=O)(O)OP(=O)(O)OP(=O)(O)O)[C@@H](O)[C@H]2F)c(=O)[nH]1", "note": "[compound 163]", "values": [{"measurement": "IC50", "setting": "[2]", "result": "< 10", "unit": "µM"}]}
{"smiles": "C[C@@]1(O)[C@H](O)[C@@](CF)(COP(=O)(O)OP(=O)(O)OP(=O)(O)O)O[C@H]1n1ccc(=O)[nH]c1=O", "note": "[compound 92]", "values": [{"measurement": "IC50", "setting": "[1]", "result": "< 1", "unit": "µM"}, {"measurement": "IC50", "setting": "[2]", "result": "< 10", "unit": "µM"}, {"measurement": "IC50", "setting": "NS5B570-Con1 (Delta-21)", "result": "< 1", "unit": "µM"}]}
{"smiles": "C=C[C@]1(CO)O[C@@H](n2ccc(N)nc2=O)C(F)(F)[C@@H]1O", "note": "[Compound 75]", "values": [{"measurement": "EC50", "setting": "subgenomic HCV replicon; Huh-7, 72 h", "result": "10 to 100", "unit": "µM"}, {"measurement": "EC50", "setting": "Human rhinovirus 1B; [5]", "result": "1 to 10", "unit": "µM"}]}
